In patent publication US8492589B2, “Alkynyl phenyl derivative compounds for treating ophthalmic diseases and disorders” (Acucela Inc., priority 2007, dated 2013):
Where two headings read alike, the source gives them in different places.

Biological target: T1, isomerase (Mus musculus, UniProt Q91ZQ5)
T1 construct: The recovery of 11-cis-retinal after bleaching can be used to estimate the activity of isomerase in vivo; from tissue; host or cells: eyes of living CD-1 and Balb/c male mice
T1 sequence (Q91ZQ5 1-533): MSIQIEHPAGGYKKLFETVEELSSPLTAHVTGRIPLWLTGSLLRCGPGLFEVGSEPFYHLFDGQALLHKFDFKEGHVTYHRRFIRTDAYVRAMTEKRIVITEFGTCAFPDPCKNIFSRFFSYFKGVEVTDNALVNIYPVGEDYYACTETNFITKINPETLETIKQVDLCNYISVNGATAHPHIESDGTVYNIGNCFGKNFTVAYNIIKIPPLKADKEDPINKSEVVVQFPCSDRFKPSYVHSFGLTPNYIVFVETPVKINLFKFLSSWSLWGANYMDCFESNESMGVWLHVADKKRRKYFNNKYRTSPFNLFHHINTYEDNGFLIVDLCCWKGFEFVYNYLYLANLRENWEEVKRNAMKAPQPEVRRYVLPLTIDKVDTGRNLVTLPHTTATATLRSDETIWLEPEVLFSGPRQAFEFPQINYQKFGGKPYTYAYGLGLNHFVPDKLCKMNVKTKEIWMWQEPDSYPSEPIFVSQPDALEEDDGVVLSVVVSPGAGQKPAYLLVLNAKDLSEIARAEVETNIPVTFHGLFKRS
Assay: In vivo murine isomerase assay (recovery of 11-cis-retinal after photobleaching)
Parameters: species or system mice
Conditions: for isomerase inhibitory activity / inhibition at 1 mg/kg / inhibition at 5 mg/kg: CD1 male mice; for inhibition at 1 mg/kg / inhibition at 5 mg/kg / inhibition in vivo at 1 mg/kg / inhibition in vivo at 5 mg/kg / ED50: mouse; for inhibition at 1 mg/kg / inhibition at 5 mg/kg / ED50: po; for inhibition in vivo at 1 mg/kg / inhibition in vivo at 5 mg/kg: read-out: % Inibition; for ED50: read-out: ED50 (dose of compound that gives 50% inhibition of 11-cis retinal (oxime) recovery), estimated, male Balb/c mice, HCl salts dosed orally in mg/kg; for ED50 / inhibition of isomerase activity in vivo (figure legend): photobleached 4 hours after dosing; for inhibition of isomerase activity in vivo (figure legend): oral dose response, Balb/c mice
Protocol: The capability of alkynyl phenyl-linked amine derivatives to inhibit isomerase is determined by an in vivo murine isomerase assay. Brief exposure of the eye to intense light (“photobleaching” of the visual pigment or simply “bleaching”) is known to photo-isomerize almost all 11-cis-retinal in the retina. The recovery of 11-cis-retinal after bleaching can be used to estimate the activity of isomerase in vivo. Delayed recovery, as represented by lower 11-cis-retinal oxime levels, indicates inhibition of isomerization reaction. Procedures were performed essentially as described by Golczak et al., Proc. Natl. Acad. Sci. […] See also Deigner et al., Science, 244: 968-71 (1989); […] Parish, et al., Proc. Natl. Acad. Sci. USA, 14609-13 (1998); […] Six-week old dark-adapted CD-1 (albino) male mice were orally gavaged with compound (0.03-3 mg/kg) dissolved in 100 μl corn oil containing 10% ethanol (five animals per group). […] After 2-24 hours in the dark, the mice were exposed to photobleaching of 5,000 lux of white light for 10 minutes. The mice were allowed to recover 2 hours in the dark. The animals were then sacrificed by carbon dioxide inhalation. Retinoids were extracted from the eye and the regeneration of 11-cis-retinal was assessed at various time intervals. All steps were performed in darkness with minimal redlight illumination (low light darkroom lights and […] flashlights for spot illumination as needed) (see, e.g., Maeda et al., J. Neurochem 85:944-956, 2003; Van Hooser et al., J Biol Chem 277:19173-82, 2002). After the mice were sacrificed, the eyes were immediately removed and placed in liquid nitrogen for storage. The eyes were placed in 500 μL of bis-tris propane buffer (10 mM, pH 7.3) and 20 μL of 0.8M hydroxile amine (pH-7.3). The eyes were cut up into small pieces with small iris scissors and then thoroughly homogenized at 30000 rpm with a mechanical homogenizer (Polytron PT 1300 D) in the tube until no visible tissue remained. 500 μL of methanol and 500 μL of heptane were added to each tube. The tubes were attached to a vortexer so that the contents were mixed thoroughly for 15 minutes in room temperature. […] The samples were analyzed on an Agilent 1100 HPLC system with normal phase column: SILICA (Beckman Coutlier, dp 5 μm, […]). The running method has a flow rate of 1.5 ml/min; solvent components are 15% solvent 1 (1% isopropanol in ethyl acetate), and 85% solvent 2 (100% hexanes). Loading volume for each sample is 100 μl; detection wavelength is 360 nm. The area under the curve for 11-cis retinal oxime was calculated by Agilent Chemstation software and was recorded manually. Data processing was performed using Prizm software. Positive control mice (no compound administered) were sacrificed fully dark-adapted and the eye retinoids analyzed. Light (bleached) control mice (no compound administered) were sacrificed and retinoids isolated and analyzed immediately after light treatment. […] Animals that received Compound 19 HCl were orally dosed with 0.01 and 1 mg/kg of compound in sterile water as solution, and photobleached 4 hours after dosing. Recovery and retinoid analysis were performed as described above. Dark control mice were vehicle-only treated, sacrificed fully dark adapted without light treatment, and analyzed. […] A time course study was performed to determine the isomerase inhibitory activity of Compounds 2, 18 and 19. Male Balb/c mice (4/group) received 3 mg Compound 2-HCl, Compound 18-HCl or Compound 19-HCl (in water) per kg bodyweight orally, by gavage. The animals were then “photo-bleached” (5000 Lux white light for 10 minutes) at 2, 4, 8, 16 and 24 hours after dosing, and returned to darkness to allow recovery of the 11-cis-retinal content of the eyes. Mice were sacrificed 2 hours after bleaching, eyes were enucleated, and retinoid content was analyzed by HPLC. A single dose study of the compound of Example 36 (Compound 36) was performed, at 1 mg/kg and 5 mg/kg oral dosing, 2, 4, 6, and 24 hours post bleaching. […]

| Structure (SMILES) | inhibition in vivo at 1 mg/kg (4 h) | inhibition in vivo at 1 mg/kg (24 h) | inhibition in vivo at 5 mg/kg (4 h) | inhibition in vivo at 5 mg/kg (24 h) | also measured |
| --- | --- | --- | --- | --- | --- |
| COc1ccccc1C#Cc1cccc(CCCN)c1 [Example 36, 3-(3-((2-Methoxyphenyl)Ethynyl)Phenyl)Propan-1-Amine] | – | – | – | – | isomerase inhibitory activity (1 mg/kg single oral dose): inactive; isomerase inhibitory activity (5 mg/kg single oral dose, at 24 h): full recovery; inhibition at 1 mg/kg (1 mg/kg single oral dose, 2 h): 6%; inhibition at 1 mg/kg (1 mg/kg single oral dose, 6 h): 5%; inhibition at 1 mg/kg (1 mg/kg single oral dose, 24 h): 0%; inhibition at 5 mg/kg (5 mg/kg single oral dose, 2 h): 46%; inhibition at 5 mg/kg (5 mg/kg single oral dose, 6 h): 45%; inhibition at 5 mg/kg (5 mg/kg single oral dose, 24 h): 0% |
| CCCC(C#Cc1cccc(CCCN)c1)(CCC)OC [Example 4, 3-(3-(3-Methoxy-3-propylhex-1-ynyl)phenyl)propan-1-amine] | 21% | 0% | 95% | 0% | – |
| CC(=O)NCCCc1cccc(C#CC2(O)CCCCC2)c1 [Example 60, N-(3-(3-((1-Hydroxycyclohexyl)Ethynyl)Phenyl)Propyl)Acetamide] | 10% | 9% | – | – | – |
| CCCC(O)(C#Cc1cccc(C(O)CCN)c1)CCC (stereo not drawn) [Example 19, 4-((3-(3-Amino-1-hydroxypropyl)phenyl)ethynyl)heptan-4-ol] | – | – | – | – | ED50: 0.33 mg/kg; inhibition of isomerase activity in vivo (figure legend): concentration-dependent inhibition |
| CCCC(O)(C#Cc1cccc([C@H](O)CCN)c1)CCC [Compound 100, (R)-4-((3-(3-Amino-1-Hydroxypropyl)Phenyl)Ethynyl)Heptan-4-ol] | – | – | – | – | ED50: 0.2 mg/kg; inhibition of isomerase activity in vivo (figure legend): concentration-dependent inhibition |
| NCCCc1cccc(C#CC2(O)CCCCC2)c1 [Example 11, 1-((3-(3-Aminopropyl)phenyl)ethynyl)cyclohexanol] | 0% | 0% | 17% | 0% | – |

More lines, main results first:

| inhibition in vivo at 1 mg/kg (4 h) | inhibition in vivo at 1 mg/kg (24 h) | inhibition in vivo at 5 mg/kg (4 h) | inhibition in vivo at 5 mg/kg (24 h) | Structure (SMILES) | also measured |
| --- | --- | --- | --- | --- | --- |
| 75% | 14% | – | – | CC(C)C(O)(C#Cc1cccc(CCCN)c1)C(C)C [Example 32, 1-(3-(3-Aminopropyl)phenyl)-3-isopropyl-4-methylpent-1-yn-3-ol] | – |
| 1% | 0% | – | – | CC(C)(C)C(C)(O)C#Cc1cccc(CCCN)c1 (stereo not drawn) [Example 25, 1-(3-(3-Aminopropyl)phenyl)-3,4,4-trimethylpent-1-yn-3-ol] | – |
| – | – | 0% | 0% | CCCC(O)C#Cc1cccc(CCCN)c1 (stereo not drawn) [Example 8, 1-(3-(3-Aminopropyl)phenyl)hex-1-yn-3-ol] | – |
| – | – | 49% | 0% | CC(C)(O)C#Cc1cccc(CCCN)c1 [Example 7, 4-(3-(3-Aminopropyl)phenyl)-2-methylbut-3-yn-2-ol] | – |
| 7% | 6% | 65% | 0% | CCC(O)(C#Cc1cccc(OCCN)c1)CC [Example 27, 1-(3-(2-Aminoethoxy)phenyl)-3-ethylpent-1-yn-3-ol] | – |
| 8% | 3% | – | – | NCCOc1cccc(C#Cc2ccccc2)c1 [Example 81, 2-(3-(Phenylethynyl)phenoxy)-ethanamine] | – |
